According to the supplement of paper PMC11208160:

Assay: recombinant barcode read abundance after kanamycin selection (control-corrected) (log10(CPM+1)); higher = more efficient recombination; sequences stand for … in AGTGCAGAGAAAATCGGCCAGTTTTCTCTGCCTGCAGTCCGCATGCCGT…AGATTTATGCAGCGGACTGCCTTTCTCCCAAAGTGATAAACCGGACAGTATCATGGACCGGTTTTCCCGGTAATCCGTATTTGCAAGGTTGGTTTCACT; site = the 11-nt target
In short: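 Recombination efficiency comes from barcode counts at recombinant junctions, converted to counts per million, averaged and corrected against the control. Values appear as log10(CPM+1). They were obtained from a pooled E. coli screen in which each oligo paired a target with an IS621 bridge RNA target-binding loop, and cells were plated in duplicate on chloramphenicol/ampicillin LB agar or on chloramphenicol/ampicillin/kanamycin with 0.1 mM IPTG.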
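Also: IS621 recombinase and bridge RNA in Escherichia coli cells.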

Sequence: GAGCTACCTTGGGTTCTAACCTGTTGCCT (site GAGCTACCTGG)
- recombinant barcode read abundance (log10): 0.172

Sequence: GAGCTACCTTGGGTTCTAACCTGTTGCCT (site GAGCTACCTTG)
- recombinant barcode read abundance (log10): 0.0234

Sequence: GAGCTGCCTTGGGTTCTAACCTGTTGCTT (site AAGCTGCCTAG)
- recombinant barcode read abundance (log10): 0.25

Sequence: GAGCTGCCTTGGGTTCTAACCTGTTGCTT (site GAGCTGCCTAA)
- recombinant barcode read abundance (log10): 1.3

Sequence: GAGGAGCCTTGGGTTCTAACCTGTTGCGT (site GAGGAGCCTAC)
- recombinant barcode read abundance (log10): 2.62

Sequence: GAGGAGCCTTGGGTTCTAACCTGTTGCGT (site TAGGAACCTAC)
- recombinant barcode read abundance (log10): 1.34

Sequence: GAGGCGGCTTGGGTTCTAACCTGTTGCTT (site GAGACGGCTAA)
- recombinant barcode read abundance (log10): 0.162

Sequence: GAGGCGGCTTGGGTTCTAACCTGTTGCTT (site GAGCCGGCTAA)
- recombinant barcode read abundance (log10): 0.149

Sequence: GAGGCGGCTTGGGTTCTAACCTGTTGCTT (site GAGGCGGCTAA)
- recombinant barcode read abundance (log10): 1.04

Sequence: GAGGCGGCTTGGGTTCTAACCTGTTGCTT (site GAGTCGGCTAA)
- recombinant barcode read abundance (log10): 0.0862

Sequence: GAGGCTCCTTGGGTTCTAACCTGTTGCCA (site GAGGCTCCTAG)
- recombinant barcode read abundance (log10): 2.19

Sequence: GAGGCTCCTTGGGTTCTAACCTGTTGCCA (site GAGGCTCCTCG)
- recombinant barcode read abundance (log10): 0.0289

Sequence: GAGGCTCCTTGGGTTCTAACCTGTTGCCA (site GAGGCTCCTGG)
- recombinant barcode read abundance (log10): 0.164

Sequence: GAGGCTCCTTGGGTTCTAACCTGTTGCCA (site GAGGCTCCTTG)
- recombinant barcode read abundance (log10): 0.365

Sequence: GAGGCTCCTTGGGTTCTAACCTGTTGCCT (site GAGGCTCCTAG)
- recombinant barcode read abundance (log10): 0.744

Sequence: GAGGCTCCTTGGGTTCTAACCTGTTGCCT (site GAGGCTCCTCG)
- recombinant barcode read abundance (log10): 0.0603

Sequence: GAGGCTCCTTGGGTTCTAACCTGTTGCCT (site GAGGCTCCTGG)
- recombinant barcode read abundance (log10): 0.137

Sequence: GAGGCTCCTTGGGTTCTAACCTGTTGCCT (site GAGGCTCCTTG)
- recombinant barcode read abundance (log10): 0.201

Sequence: GAGGGCCCTTGGGTTCTAACCTGTTGCCG (site GAGGGCCCTCA)
- recombinant barcode read abundance (log10): 0.29

Sequence: GAGGGCCCTTGGGTTCTAACCTGTTGCCG (site GAGGGCCCTCC)
- recombinant barcode read abundance (log10): 1.2

Sequence: GAGGGCCCTTGGGTTCTAACCTGTTGCCG (site GAGGGCCCTCG)
- recombinant barcode read abundance (log10): 1.96

Sequence: GAGGGCCCTTGGGTTCTAACCTGTTGCCG (site GAGGGCCCTCT)
- recombinant barcode read abundance (log10): 0.759

Sequence: GAGGGCCCTTGGGTTCTAACCTGTTGCGG (site GAGGGCCCTCA)
- recombinant barcode read abundance (log10): 1.94

Sequence: GAGGGCCCTTGGGTTCTAACCTGTTGCGG (site GAGGGCCCTCC)
- recombinant barcode read abundance (log10): 3.11

Sequence: GAGGGCCCTTGGGTTCTAACCTGTTGCGG (site GAGGGCCCTCG)
- recombinant barcode read abundance (log10): 0.81

Sequence: GAGGGCCCTTGGGTTCTAACCTGTTGCGG (site GAGGGCCCTCT)
- recombinant barcode read abundance (log10): 2.8

Sequence: GAGGGTACTTGGGTTCTAACCTGTTGCAT (site GAGAGTACTAT)
- recombinant barcode read abundance (log10): 1.16

Sequence: GAGGGTACTTGGGTTCTAACCTGTTGCAT (site GAGCGTACTAT)
- recombinant barcode read abundance (log10): 0.206

Sequence: GAGGGTACTTGGGTTCTAACCTGTTGCAT (site GAGGGTACTAT)
- recombinant barcode read abundance (log10): 2.69

Sequence: GAGGGTACTTGGGTTCTAACCTGTTGCAT (site GAGTGTACTAT)
- recombinant barcode read abundance (log10): 0.102

Sequence: GAGGGTCCTTGGGTTCTAACCTGTTGCGT (site GAGGGTCCTAA)
- recombinant barcode read abundance (log10): 0.194

Sequence: GAGGGTCCTTGGGTTCTAACCTGTTGCGT (site GAGGGTCCTAC)
- recombinant barcode read abundance (log10): 2.82

Sequence: GAGGGTCCTTGGGTTCTAACCTGTTGCGT (site GAGGGTCCTAG)
- recombinant barcode read abundance (log10): 1.86

Sequence: GAGGGTCCTTGGGTTCTAACCTGTTGCGT (site GAGGGTCCTAT)
- recombinant barcode read abundance (log10): 2.29

Sequence: GAGTACCCTTGGGTTCTAACCTGTTGCGT (site GAGAATCCTAC)
- recombinant barcode read abundance (log10): 0.107

Sequence: GAGTACCCTTGGGTTCTAACCTGTTGCGT (site GAGTACCCTAC)
- recombinant barcode read abundance (log10): 3.2

Sequence: GAGTAGCCTTGGGTTCTAACCTGTTGCGG (site GAGTAGCCTCC)
- recombinant barcode read abundance (log10): 2.59

Sequence: GAGTAGCCTTGGGTTCTAACCTGTTGCGG (site GAGTCGCCTCC)
- recombinant barcode read abundance (log10): 0.196

Sequence: GAGTAGCCTTGGGTTCTAACCTGTTGCGG (site GAGTGGCCTCC)
- recombinant barcode read abundance (log10): 0.3

Sequence: GAGTAGCCTTGGGTTCTAACCTGTTGCGG (site GAGTTGCCTCC)
- recombinant barcode read abundance (log10): 0.204

Sequence: GAGTGTACTTGGGTTCTAACCTGTTGCAT (site GAGAGTACTAT)
- recombinant barcode read abundance (log10): 0.208

Sequence: GAGTGTACTTGGGTTCTAACCTGTTGCAT (site GAGCGTACTAT)
- recombinant barcode read abundance (log10): 0.553

Sequence: GAGTGTACTTGGGTTCTAACCTGTTGCAT (site GAGGGTACTAT)
- recombinant barcode read abundance (log10): 0.029

Sequence: GAGTGTACTTGGGTTCTAACCTGTTGCAT (site GAGTGTACTAT)
- recombinant barcode read abundance (log10): 1.32

Sequence: GAGTGTTCTTGGGTTCTAACCTGTTGCTT (site GAGTGTTCTAA)
- recombinant barcode read abundance (log10): 0.277

Sequence: GAGTGTTCTTGGGTTCTAACCTGTTGCTT (site TGTACGACTCC)
- recombinant barcode read abundance (log10): 0.0677

Sequence: GATAACTCTTGGGTTCTAACCTGTTGCCT (site AATAACTCTAG)
- recombinant barcode read abundance (log10): 0.802

Sequence: GATAACTCTTGGGTTCTAACCTGTTGCCT (site CATAACTCTAG)
- recombinant barcode read abundance (log10): 0.329

Sequence: GATAACTCTTGGGTTCTAACCTGTTGCCT (site GATAACTCTAG)
- recombinant barcode read abundance (log10): 0.734

Sequence: GATAACTCTTGGGTTCTAACCTGTTGCCT (site TATAACTCTAG)
- recombinant barcode read abundance (log10): 0.315

Sequence: GATACTGCTTGGGTTCTAACCTGTTGCCT (site GAAACTGCTAG)
- recombinant barcode read abundance (log10): 0.0212

Sequence: GATACTGCTTGGGTTCTAACCTGTTGCCT (site GACACTGCTAG)
- recombinant barcode read abundance (log10): 0.434

Sequence: GATACTGCTTGGGTTCTAACCTGTTGCCT (site GAGACTGCTAG)
- recombinant barcode read abundance (log10): 0.0206

Sequence: GATACTGCTTGGGTTCTAACCTGTTGCCT (site GATACTGCTAG)
- recombinant barcode read abundance (log10): 0.504

Sequence: GATAGGACTTGGGTTCTAACCTGTTGCGT (site GATAGGACTAC)
- recombinant barcode read abundance (log10): 2.12

Sequence: GATAGGACTTGGGTTCTAACCTGTTGCGT (site TATAGGACTAC)
- recombinant barcode read abundance (log10): 2.03

Sequence: GATAGGGCTTGGGTTCTAACCTGTTGCGG (site GATAGGGCTCC)
- recombinant barcode read abundance (log10): 2.34

Sequence: GATAGGGCTTGGGTTCTAACCTGTTGCGG (site TATAGGGCTCG)
- recombinant barcode read abundance (log10): 0.362

Sequence: GATAGTGCTTGGGTTCTAACCTGTTGCCT (site GATAGTACTAG)
- recombinant barcode read abundance (log10): 0.0881

Sequence: GATAGTGCTTGGGTTCTAACCTGTTGCCT (site GATAGTCCTAG)
- recombinant barcode read abundance (log10): 0.0622

Sequence: GATAGTGCTTGGGTTCTAACCTGTTGCCT (site GATAGTGCTAG)
- recombinant barcode read abundance (log10): 0.536

Sequence: GATAGTGCTTGGGTTCTAACCTGTTGCCT (site GATAGTTCTAG)
- recombinant barcode read abundance (log10): 0.0158

Sequence: GATCAATCTTGGGTTCTAACCTGTTGCCT (site GAGCAAACTAG)
- recombinant barcode read abundance (log10): 0.0249

Sequence: GATCAATCTTGGGTTCTAACCTGTTGCCT (site GATCAATCTAG)
- recombinant barcode read abundance (log10): 0.332

Sequence: GATCGAGCTTGGGTTCTAACCTGTTGCGA (site GATCGAGCTTC)
- recombinant barcode read abundance (log10): 0.921

Sequence: GATCGAGCTTGGGTTCTAACCTGTTGCGA (site GATGGAGCTCC)
- recombinant barcode read abundance (log10): 0.428

Sequence: GATGGCCCTTGGGTTCTAACCTGTTGCTT (site GACGGACCTAA)
- recombinant barcode read abundance (log10): 0.101

Sequence: GATGGCCCTTGGGTTCTAACCTGTTGCTT (site GATGGCCCTAA)
- recombinant barcode read abundance (log10): 0.528

Sequence: GATGTAACTTGGGTTCTAACCTGTTGCCT (site GAAGTAACTAG)
- recombinant barcode read abundance (log10): 0.191

Sequence: GATGTAACTTGGGTTCTAACCTGTTGCCT (site GACGTAACTAG)
- recombinant barcode read abundance (log10): 0.101

Sequence: GATGTAACTTGGGTTCTAACCTGTTGCCT (site GAGGTAACTAG)
- recombinant barcode read abundance (log10): 0.0797

Sequence: GATGTAACTTGGGTTCTAACCTGTTGCCT (site GATGTAACTAG)
- recombinant barcode read abundance (log10): 0.956

Sequence: GATTCTACTTGGGTTCTAACCTGTTGCGT (site CATGCTACTAC)
- recombinant barcode read abundance (log10): 0.0209

Sequence: GATTCTACTTGGGTTCTAACCTGTTGCGT (site GATTCTACTAC)
- recombinant barcode read abundance (log10): 0.0518

Sequence: GATTCTCCTTGGGTTCTAACCTGTTGCGT (site GATTCTCCTAA)
- recombinant barcode read abundance (log10): 0.0946

Sequence: GATTCTCCTTGGGTTCTAACCTGTTGCGT (site GATTCTCCTAC)
- recombinant barcode read abundance (log10): 0.541

Sequence: GATTCTCCTTGGGTTCTAACCTGTTGCGT (site GATTCTCCTAG)
- recombinant barcode read abundance (log10): 0.141

Sequence: GATTCTCCTTGGGTTCTAACCTGTTGCGT (site GATTCTCCTAT)
- recombinant barcode read abundance (log10): 0.118

Sequence: GATTCTCCTTGGGTTCTAACCTGTTGCTT (site GATTCTCCTAA)
- recombinant barcode read abundance (log10): 0.0943

Sequence: GATTCTCCTTGGGTTCTAACCTGTTGCTT (site GATTCTCCTAC)
- recombinant barcode read abundance (log10): 0.0499

Sequence: GATTCTCCTTGGGTTCTAACCTGTTGCTT (site GATTCTCCTAG)
- recombinant barcode read abundance (log10): 0.0621

Sequence: GATTCTCCTTGGGTTCTAACCTGTTGCTT (site GATTCTCCTAT)
- recombinant barcode read abundance (log10): 0.194

Sequence: GCAAATCCTTGGGTTCTAACCTGTTGCCT (site GCAAATCCTAG)
- recombinant barcode read abundance (log10): 0.873

Sequence: GCAAATCCTTGGGTTCTAACCTGTTGCCT (site GCACATCCTAC)
- recombinant barcode read abundance (log10): 0.108

Sequence: GCAACCTCTTGGGTTCTAACCTGTTGCTA (site CGCTGACCTAG)
- recombinant barcode read abundance (log10): 0.049

Sequence: GCAACCTCTTGGGTTCTAACCTGTTGCTA (site GCAACCTCTTA)
- recombinant barcode read abundance (log10): 1.92
